In US20080249186A1, “Fungicidal Composition” (GIVAUDAN SA, priority 2005, published 2008):

Columns and labels:
[1] = tested on: Rhizoctonia solani; assay: Checkerboard titration / MIC determination in microtiter plates (turbidity, fungal growth); assay type: cell-based; conditions: agent alone; percent by weight
Method: (§1) A test system was set up with two of most common soil inhabitating plant pathogenic fungi causing high losses in green houses: Fusarium oxysporum, and Rhizoctonia solani. Garlic oil was used as the source of allyl sulphides.
(§2) The synergistic action between this oil and eugenol or thymol was tested in Checkerboard titration experiments. The ‘checkerboard’ is the inhibitory pattern found for multiple combinations of two antimicrobial agents in concentrations equal to, above, and below their minimal inhibitory concentration for the organism being tested. These multiple combinations of antimicrobial agents are prepared in microtiter plates. The checkerboard consists then of columns which contain the same amount of one antimicrobial which is diluted along the x-axis and rows which each contain the same amount of the other antimicrobial (diluted along the y-axis). Thus, each well of the microtiter plate is a unique combination of the two agents.
(§3) A method of quantitating synergy is the ‘fractional inhibitory concentration’ (FIC) index. For each row, the FIC index is calculated from the lowest concentration of agents necessary to inhibit growth. The FIC of each agent is derived by dividing the concentration of the agent present in that well of the microtiter plate by the minimal inhibitory concentration (MIC) needed of that agent alone to inhibit the organism. The FIC index is then the sum of these values for both antibacterial agents in that well of the microtiter plate. Fractional inhibitory concentration indices are then used as measure of synergy. The FIC index is calculated for each row as follows:
(§4) where MICa, MICb are the minimal inhibitory concentration (MIC) of compound A and B in the mixture, and MICA, MICB are the MIC of A and B when used alone. When the lowest FIC index obtained in a microtiter plate in this way is less than 1, the combination is synergistic. When the FIC index is 1, the combination is additive.
(§5) All examples were made using routine techniques for MIC determination. The dilutions of the active agents were prepared in dimethylsulfoxide, and 2 μl aliquots of the different stock solutions of each of the two agents were then added to individual wells of the microtiter plates to obtain the desired checkerboard as described above. Fungi were swabbed from agar plates and suspended in 10 ml of Sabouraud liquid medium. The fungal suspensions was diluted 20 fold in the same growth medium. To each well of the microtiter plates 100 μl of such a diluted suspension of the test organism was distributed. The plates were covered with plastic films and incubated for 48 h at 30° C. with shaking at 250 rpm. The turbidity was then measured with a microplate reader to determine fungal growth. […]

[2] = tested on: Fusarium oxysporum; assay: as above; assay type: cell-based; conditions: agent alone; percent by weight
Method: as §1, §2, §3, §4, §5

| Structure (SMILES) | MIC of pure compounds, R. solani [1] [%] | MIC of pure compounds, F. oxysporum [2] [%] |
| --- | --- | --- |
| C=CCc1ccc(O)c(OC)c1 [eugenol, 4-hydroxy-3-methoxy-1-allylbenzene] | 0.025 | 0.05 |
| Cc1ccc(C(C)C)c(O)c1 [thymol, 1-methyl-3-hydroxy-4-iso-propylbenzene] | 0.0125 | 0.05 |
